Results published in patent US11351168B1 (Celgene CAR LLC, priority 2008, dated 2022).

System: BTK signaling in Ramos cells
Assay: BTK Ramos cellular assay (phosphorylation of BTK substrate PLCγ2)
Type: cell-based, human
Settings: Homo sapiens, 1 hour compound, anti-IgM stimulation, read-out: BTK Inhibition (Ramos cellular)
Protocol: Compounds I-2, I-4, and I-7 were assayed in Ramos human Burkitt lymphoma cells. Ramos cells were grown in suspension in T225 flasks, spun down, resuspended in 50 ml serum-free media and incubated for 1 hour. Compound was added to Ramos cells in serum free media to a final concentration of 1, 0.1, 0.01, or 0.001 μM. Ramos cells were incubated with compound for 1 hour, washed again and resuspended in 100 ul serum-free media. Cells were then stimulated with 1 μg of goat F(ab′)2 Anti-Human IgM and incubated on ice for 10 minutes to activate B cell receptor signaling pathways. After 10 minutes, the cells were washed once with PBS and then lysed on ice with Invitrogen Cell Extraction buffer. 16 μg total protein from lysates were loaded on gel and blots were probed for phosphorylation of the BTK substrate PLCγ2.

| Compound | IC50 |
| --- | --- |
| C=CC(=O)Nc1ccc(C)c(Nc2ncc(C)c(Nc3cccc(C)c3)n2)c1 [Compound I-8, N-(4-methyl-3-(5-methyl-4-(m-tolylamino)pyrimidin-2-ylamino)phenyl)acrylamide] | 100 to 1000 nM |
| C=CC(=O)N1CCCC(Nc2nc(Nc3ccccc3)ncc2C)C1 (stereo not shown) [Compound I-27] | 10 to 100 nM |
| C=CC(=O)N1CCC[C@@H](Nc2nc(Nc3cccc(Cl)c3)ncc2F)C1 [Compound I-147, (R)-1-(3-(2-(3-chlorophenylamino)-5-fluoropyrimidin-4-ylamino)piperidin-1-yl)prop-2-en-1-one] | 10 to 100 nM |
| C=CC(=O)Nc1cccc(Nc2nc(Nc3ccc(OC)nc3)ncc2OC)c1 [Compound I-192, N-(3-(5-methoxy-2-(6-methoxypyridin-3-ylamino)pyrimidin-4-ylamino)phenyl)acrylamide] | 10 to 100 nM |
| C=CC(=O)N1CCC[C@@H](Nc2nc(Nc3ccc(OC)nc3)ncc2F)C1 [Compound I-202, (R)-1-(3-(5-fluoro-2-(6-methoxypyridin-3-ylamino)pyrimidin-4-ylamino)piperidin-1-yl)prop-2-en-1-one] | 100 to 1000 nM |
| C=CC(=O)Nc1cccc(Oc2nc(Nc3ccc(OC)nc3)ncc2C(=O)Nc2ccccc2)c1 [Compound I-159, 4-(3-acrylamidophenoxy)-2-(6-methoxypyridin-3-ylamino)-pyrimidine-5-carboxylic acid phenylamide] | 100 to 1000 nM |
| C=CC(=O)Nc1cccc(Nc2nc(Nc3ccc(OC4CCC4)nc3)ncc2F)c1 [Compound I-79, N-(3-(2-(6-cyclobutoxypyridin-3-ylamino)-5-fluoropyrimidin-4-ylamino)phenyl)acrylamide] | < 10 nM |
| C=CC(=O)N1CCC(Nc2nc(Nc3cccc(OC)c3)ncc2F)C1 (stereo not shown) [Compound I-201, 1-(3-(5-fluoro-2-(3-methoxyphenylamino)pyrimidin-4-ylamino)pyrrolidin-1-yl)prop-2-en-1-one] | 100 to 1000 nM |
| C=CC(=O)N1CCOc2ccc(Nc3nc(Nc4ccc(N5CCCC5=O)cc4)ncc3C(C)=O)cc21 [Compound I-152, 1-{4-[5-Acetyl-4-(4-acryloyl-3,4-dihydro-2H-benzo[1,4]oxazin-6-ylamino)-pyrimidin-2-ylamino]-phenyl}-pyrrolidin-2-one] | 10 to 100 nM |
| C=CC(=O)N1Cc2ccc(Nc3nc(Nc4ccc(OC)nc4)ncc3F)cc2C1 [Compound I-165, 1-(5-(5-fluoro-2-(6-methoxypyridin-3-ylamino)pyrimidin-4-ylamino)isoindolin-2-yl)prop-2-en-1-one] | 10 to 100 nM |
| C=CC(=O)Nc1cccc(Nc2nc(Nc3ccc(OC)nc3)ncc2C(N)=O)c1 [Compound I-209, 4-(3-acrylamidophenylamino)-2-(6-methoxypyridin-3-ylamino)pyrimidine-5-carboxamide] | 10 to 100 nM |
| C=CC(=O)Nc1cccc(Nc2nc(Nc3ccc(OC)nc3)ncc2C2CC2)c1 [Compound I-167, N-(3-(5-cyclopropyl-2-(6-methoxypyridin-3-ylamino)pyrimidin-4-ylamino)phenyl)acrylamide] | 10 to 100 nM |
| C=CC(=O)N1CCOc2ccc(Nc3nc(Nc4ccc(OCCO)nc4)ncc3C(C)=O)cc21 [Compound I-128, 1-(6-{5-Acetyl-2-[6-(2-hydroxy-ethoxy)-pyridin-3-ylamino]-pyrimidin-4-ylamino}-2,3-dihydro-benzo[1,4]oxazin-4-yl)-propenone] | 10 to 100 nM |
| C=CC(=O)Nc1cc(Nc2nc(Nc3ccc(OC(C)C)nc3)ncc2F)ccc1Cl [Compound I-107, N-(2-chloro-5-(5-fluoro-2-(6-isopropoxypyridin-3-ylamino)pyrimidin-4-ylamino)phenyl)acrylamide] | 10 to 100 nM |
| C=CC(=O)Nc1cccc(Nc2nc(Nc3ccc(OCCOC)cc3)ncc2C2CC2)c1 [Compound I-139, N-(3-(5-cyclopropyl-2-(4-(2-methoxyethoxy)phenylamino)pyrimidin-4-ylamino)phenyl)acrylamide] | 10 to 100 nM |
| C=CC(=O)Nc1cccc(Nc2nc(Nc3ccc(OC)c(OC)c3)ncc2F)c1 [Compound I-134, 4-(3acrylamidophenylamino)-5-fluoro-2-(3,4-dimethoxyphenylamino)-pyrimidine] | 10 to 100 nM |
| COc1ccc(Nc2ncc(F)c(Nc3cccc(NC(=O)/C=C/CN(C)C)c3)n2)cn1 [Compound I-125, (E)-4-(dimethylamino)-N-(3-(5-fluoro-2-(6-methoxypyridin-3-ylamino)pyrimidin-4-ylamino)phenyl)but-2-enamide] | 10 to 100 nM |
| C=CC(=O)N(C)Cc1ccc(Nc2nc(Nc3ccc(OC)nc3)ncc2F)cc1 [Compound I-114, N-(4-(5-fluoro-2-(6-methoxypyridin-3-ylamino)pyrimidin-4-ylamino)benzyl)-N-methylacrylamide] | 10 to 100 nM |

Results, then the compound that gave them:

| IC50 | Compound |
| --- | --- |
| 10 to 100 nM | C=CC(=O)N1CCC[C@@H](Nc2nc(Nc3cccc(OCCN4CCOCC4)c3)ncc2F)C1 [Compound I-135, (R)-1-(3-(5-fluoro-2-(3-(2-morpholinoethoxy)phenylamino)pyrimidin-4-ylamino)piperidin-1-yl)prop-2-en-1-one] |
| 10 to 100 nM | C=CC(=O)Nc1cccc(Nc2nc(Nc3cccc(S(N)(=O)=O)c3)ncc2F)c1 [Compound I-160, N-(3-(5-fluoro-2-(3-sulfamoylphenylamino)pyrimidin-4-ylamino)phenyl)acrylamide] |
| 10 to 100 nM | C=CC(=O)N1CCOc2ccc(Nc3nc(Nc4ccc(N5CCOCC5)nc4)ncc3C(C)=O)cc21 [Compound I-168, 1-{6-[5-Acetyl-2-(6-morpholin-4-yl-pyridin-3-ylamino)-pyrimidin-4-ylamino]-2,3-dihydro-benzo[1,4]oxazin-4-yl}-propenone] |
| < 10 nM | C=CC(=O)Nc1cccc(Nc2nc(Nc3ccc(OCCOC)nc3)ncc2C(C)=O)c1 [Compound I-122, N-(3-{5-Acetyl-2-[6-(2-methoxy-ethoxy)-pyridin-3-ylamino]-pyrimidin-4-ylamino}-phenyl)-acrylamide] |
| < 10 nM | C=CC(=O)Nc1cccc(Nc2nc(Nc3ccc4c(c3)N(C(=O)C(F)(F)F)CCO4)ncc2F)c1 [Compound I-143, N-(3-(2-(4-trifluoroacetyl-2,3-dihydrobenzo[1,4]oxazin-6-yl)amino-5-fluoropyrimidin-4-ylamino)phenyl)acrylamide] |
| < 10 nM | C=CC(=O)Nc1cccc(Nc2nc(Nc3ccc(OCCCS(C)(=O)=O)nc3)ncc2F)c1 [Compound I-80, N-(3-(5-fluoro-2-(6-(3-(methylsulfonyl)propoxy)pyridin-3-ylamino)pyrimidin-4-ylamino)phenyl)acrylamide] |
| < 10 nM | C=CC(=O)Nc1cccc(Nc2nc(Nc3ccc(OCCCS(C)(=O)=O)c(F)c3)ncc2F)c1 [Compound I-318, N-(3-(5-fluoro-2-(3-fluoro-4-(3-(methylsulfonyl)propoxy)phenylamino)pyrimidin-4-ylamino)phenyl)acrylamide] |
| < 10 nM | C=CC(=O)Nc1cccc(Nc2nc(Nc3ccc4c(c3)NCCO4)ncc2F)c1 [Compound I-174] |
| < 10 nM | C=CC(=O)Nc1cccc(Nc2nc(Nc3ccc(OCC(C)(C)O)c(F)c3)ncc2F)c1 [Compound I-315, N-(3-(5-fluoro-2-(3-fluoro-4-(2-hydroxy-2-methylpropoxy)phenylamino)pyrimidin-4-ylamino)phenyl)acrylamide] |
| < 10 nM | C=CC(=O)Nc1cccc(Nc2nc(Nc3ccc(N(C)CCOC)nc3)ncc2F)c1 [Compound I-77, N-(3-(5-fluoro-2-(6-((2-methoxyethyl)(methyl)amino)pyridin-3-ylamino)pyrimidin-4-ylamino)phenyl)acrylamide] |
| < 10 nM | C=CC(=O)Nc1cccc(Oc2nc(Nc3ccc(OC)nc3)ncc2F)c1 [Compound I-217] |
| < 10 nM | C=CC(=O)N1CCOc2ccc(Nc3nc(Nc4ccc5c(c4)CC(=O)N5)ncc3C(C)=O)cc21 [Compound I-129, 5-[5-Acetyl-4-(4-acryloyl-3,4-dihydro-2H-benzo[1,4]oxazin-6-ylamino)-pyrimidin-2-ylamino]-1,3-dihydro-indol-2-one] |
| < 10 nM | C=CC(=O)Nc1cccc(Nc2nc(Nc3cccc(OCCO)c3)ncc2F)c1 [Compound I-105, N-(3-(5-fluoro-2-(3-(2-hydroxyethoxy)phenylamino)pyrimidin-4-ylamino)phenyl)acrylamide] |
| < 10 nM | C=CC(=O)Nc1cccc(Nc2nc(Nc3ccc(OC(C)C)nc3)ncc2F)c1 [Compound I-172, N-(3-(5-fluoro-2-(6-isopropoxypyridin-3-ylamino)pyrimidin-4-ylamino)phenyl)acrylamide] |
| < 10 nM | C=CC(=O)Nc1cccc(Nc2nc(Nc3ccc4[nH]ncc4c3)ncc2F)c1 [Compound I-156] |
| < 10 nM | C=CC(=O)Nc1cccc(Nc2nc(Nc3cccc(OCCCS(C)(=O)=O)c3)ncc2F)c1 [Compound I-138, 4-(3-acrylamidophenylamino)-5-fluoro-2-(3-(3-(methylsulfonyl)propoxy)phenylamino)-pyrimidine] |
| < 10 nM | C=CC(=O)Nc1cccc(Nc2nc(Nc3ccc(Cl)c(OCCOC)c3)ncc2F)c1 [Compound I-321, N-(3-(2-(4-chloro-3-(2-methoxyethoxy)phenylamino)-5-fluoropyrimidin-4-ylamino)phenyl)acrylamide] |
| < 10 nM | C=CC(=O)Nc1cccc(Nc2nc(Nc3ccc(OCC(C)(C)O)nc3)ncc2F)c1 [Compound I-313, N-(3-(5-fluoro-2-(6-(2-hydroxy-2-methylpropoxy)pyridin-3-ylamino)pyrimidin-4-ylamino)phenyl)acrylamide] |
| < 10 nM | C=CC(=O)Nc1cc(Nc2nc(Nc3ccc(OCCOC)cc3)ncc2F)ccc1F [Compound I-87, N-(2-fluoro-5-(5-fluoro-2-(4-(2-methoxyethoxy)phenylamino)pyrimidin-4-ylamino)phenyl)acrylamide] |
